Results taken from patent publication US7759345B2, “Antitumoral derivatives of ET-743” (priority 2001, dated 2010).
Read-outs that look alike come from different tables or passages of the source.

Tests used:
K-562 = assay: Inhibition of cells growth by colorimetric assay (SRB), K-562; format: cell-based; conditions: SRB, 48 hours exposure
Protocol: (§1) 2°.—Inhibition of Cells Growth by Colorimetric Assay.
(§2) A colorimetric type of assay, using sulforhodamine B (SRB) reaction has been adapted for a quantitative measurement of cell growth and viability [following the technique described by Philip Skehan, et al. (1990), New colorimetric cytotoxicity assay for anticancer drug screening, J. Natl. Cancer Inst., 82:1107-1112]
(§3) This form of the assay employs 96 well cell culture microplates of 9 mm diameter (Faircloth, 1988; Mosmann, 1983). Most of the cell lines are obtained from American Type Culture Collection (ATCC) derived from different human cancer types.
(§4) Cells are maintained in RPMI 1640 10% FBS, supplemented with 0.1 g/l penicillin and 0.1 g/l streptomycin sulfate and then incubated at 37° C., 5% CO2 and 98% humidity. For the experiments, cells were harvested from subconfluent cultures using trypsin and resuspended in fresh medium before plating.
(§5) Cells are seeded in 96 well microtiter plates, at 5×10^3 cells per well in aliquots of 195 μl medium, and they are allowed to attach to the plate surface by growing in drug free medium for 18 hours. Afterward, samples are added in aliquots of 5 μl in a ranging from 10 to 10^−8 μg/ml, dissolved in DMSO/EtOH/PBS (0.5:0.5:99). After 48 hours exposure, the antitumor effect are measured by the SRB methodology: cells are fixed by adding 50 μl of cold 50% (wt/vol) trichloroacetic acid (TCA) and incubating for 60 minutes at 4° C. Plates are washed with deionized water and dried. One hundred μl of SRB solution (0.4% wt/vol in 1% acetic acid) is added to each microtiter well and incubated for 10 minutes at room temperature. Unbound SRB is removed by washing with 1% acetic acid. Plates are air dried and bound stain is solubilized with Tris buffer. Optical densities are read on a automated spectrophotometric plate reader at a single wavelength of 490 nm.
(§6) The values for mean+/−SD of data from triplicate wells are calculated. Some parameters for cellular responses can be calculated: GI=growth inhibition, TGI=total growth inhibition (cytostatic effect) and LC=cell killing (cytotoxic effect).
(§7) Obtained results may predict the usefulness of a certain drug as a potential cancer treatment. For this technique, compounds which show GI50 values smaller than 10 μg/ml are selected to continue with further studies. GI50's data allow to predict that not only could a drug be cystostatic, but also it could have a potential in terms of tumor reduction.

A-549 = assay: Inhibition of cells growth by colorimetric assay (SRB), A-549; format: cell-based; conditions: for GI50 / LC50 (concentration for 50% cell killing): Homo sapiens, A549, 48 h; for GI50: read-out: A-549 GI50
Summary of the method: (§8)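 Human cancer cells (5×10^3/well) attached 18 h in RPMI 1640 10% FBS, then exposed 48 h at 37°C to compounds from 10 to 10^−8 μg/ml in DMSO/EtOH/PBS. TCA-fixed, SRB-stained, OD read at 490 nm; GI, TGI and LC derived from triplicate wells.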

SK-MEL-28 = assay: Inhibition of cells growth by colorimetric assay (SRB), SK-MEL-28; format: cell-based; conditions: 48 hours exposure; for GI50: read-out: MEL-28 GI50
Summary of the method: as §8

HT-29 = assay: Inhibition of cells growth by colorimetric assay (SRB), HT-29; format: cell-based; conditions: for GI50 / LC50 (concentration for 50% cell killing): Homo sapiens, HT-29, 48 h; for GI50: read-out: HT-29 GI50
Summary of the method: as §8

LoVo = assay: Inhibition of cells growth by colorimetric assay (SRB), LoVo; format: cell-based; conditions: SRB, 48 hours exposure
Protocol: as §1, §2, §3, §4, §5, §6, §7

LoVo-Dox = assay: Inhibition of cells growth by colorimetric assay (SRB), LoVo-Dox; format: cell-based; conditions: SRB, 48 hours exposure
Protocol: as §1, §2, §3, §4, §5, §6, §7

DU-145 = assay: Inhibition of cells growth by colorimetric assay (SRB), DU-145; format: cell-based; conditions: SRB, 48 hours exposure
Protocol: as §1, §2, §3, §4, §5, §6, §7

LNCaP = assay: Inhibition of cells growth by colorimetric assay (SRB), LNCaP; format: cell-based; conditions: SRB, 48 hours exposure
Protocol: as §1, §2, §3, §4, §5, §6, §7

SK-BR-3 = assay: Inhibition of cells growth by colorimetric assay (SRB), SK-BR-3; format: cell-based; conditions: SRB, 48 hours exposure
Protocol: as §1, §2, §3, §4, §5, §6, §7

IGROV-1 = assay: Inhibition of cells growth by colorimetric assay (SRB), IGROV-1; format: cell-based; conditions: SRB, 48 hours exposure
Protocol: as §1, §2, §3, §4, §5, §6, §7

IGROV-ET = assay: Inhibition of cells growth by colorimetric assay (SRB), IGROV-ET; format: cell-based; conditions: SRB, 48 hours exposure
Protocol: as §1, §2, §3, §4, §5, §6, §7

SK-OV-3 = assay: Inhibition of cells growth by colorimetric assay (SRB), SK-OV-3; format: cell-based; conditions: SRB, 48 hours exposure
Protocol: as §1, §2, §3, §4, §5, §6, §7

PANC-1 = assay: Inhibition of cells growth by colorimetric assay (SRB), PANC-1; format: cell-based; conditions: SRB, 48 hours exposure
Protocol: as §1, §2, §3, §4, §5, §6, §7

HMEC1 = assay: Inhibition of cells growth by colorimetric assay (SRB), HMEC1; format: cell-based; conditions: SRB, 48 hours exposure
Protocol: as §1, §2, §3, §4, §5, §6, §7

From the text for Kidney: (§9) Toxicity was asssessed by the methods reported in Toxicology in Vitro, 15 (2001) 571-577, J. Luber Narod et al.: “Evaluation of the use of in vitro methodolodies as tools for screening new compounds for potential in vivo toxicity”.
From the text for Liver: as §9
From the text for Skeletal: as §9

In the case of `C=COC(=O)Oc1cc2c(cc1OC)[C@@]1(CS[C@@H]3c4c(OC(C)=O)c(C)c5c(c4[C@H](COC1=O)N1C3[C@H]3c4c(cc(C)c(OC)c4O)C[C@@H]([C@@H]1O)N3C)OCO5)N(C(=O)OC=C)CC2` (stereo partly shown) [Compound 100], the GI50 (K-562; Homo sapiens, K562, 48 h, K-562, read-out: K-562 GI50) is reported as 0.0364 µM, the LC50 (50% cell killing) (K-562; Homo sapiens, K562, 48 h, read-out: K-562 LC50, K-562) is reported as 0.106 µM and the “K-562 TGI” value (K-562; K-562) is reported as 6.20E-08. The “A-549 TGI” value (A-549; A-549, SRB, 48 hours exposure) was 6.20E-08, the GI50 (A-549; A-549, SRB, 48 hours exposure) was 0.0298 µM and the LC50 (concentration for 50% cell killing) (A-549; read-out: A-549 LC50, A-549, SRB, 48 hours exposure) was 0.112 µM. The GI50 (SK-MEL-28; Homo sapiens, SK-MEL-28, 48 h, MEL-28, SRB) was 0.0265 µM, the CC50 (SK-MEL-28; Homo sapiens, SK-MEL-28, 48 h, read-out: MEL-28 LC50, MEL-28, SRB) was 0.0959 µM and the “MEL-28 TGI” value (SK-MEL-28; MEL-28, SRB) was 5.04E-08. For the same molecule, the “HT-29 TGI” value (HT-29; HT-29, SRB, 48 hours exposure) was 8.07E-08, the GI50 (HT-29; HT-29, SRB, 48 hours exposure) was 0.035 µM and the LC50 (concentration for 50% cell killing) (HT-29; read-out: HT-29 LC50, HT-29, SRB, 48 hours exposure) was 11.1 µM. For the same molecule, the GI50 (LoVo; Homo sapiens, LoVo, 48 h, LOVO, read-out: LOVO GI50) was 0.0244 µM, the LC50 (concentration for 50% cell killing) (LoVo; Homo sapiens, LoVo, 48 h, read-out: LOVO LC50, LOVO) was 0.0823 µM and the “LOVO TGI” value (LoVo; LOVO) was 4.48E-08. For the same molecule, the GI50 (LoVo-Dox; Homo sapiens, 48 h, LOVO-DOX, read-out: LOVO-DOX GI50) was 0.392 µM, the CC50 (LoVo-Dox; Homo sapiens, 48 h, read-out: LOVO-DOX LC50, LOVO-DOX) was 11.1 µM and the “LOVO-DOX TGI” value (LoVo-Dox; LOVO-DOX) was 2.73E-06. The “DU-145 TGI” value (DU-145; DU-145) was 1.03E-07, the GI50 (DU-145; Homo sapiens, DU-145, 48 h, DU-145, read-out: DU-145 GI50) was 0.0431 µM and the CC50 (DU-145; Homo sapiens, DU-145, 48 h, read-out: DU-145 LC50, DU-145) was 8.32 µM. The GI50 (LNCaP; Homo sapiens, LNCaP, 48 h, read-out: LNCAP GI50, LNCAP) was 0.0215 µM, the CC50 (LNCaP; Homo sapiens, LNCaP, 48 h, read-out: LNCAP LC50, LNCAP) was 0.0665 µM and the “LNCAP TGI” value (LNCaP; LNCAP) was 3.79E-08. The GI50 (SK-BR-3; Homo sapiens, SK-BR-3, 48 h, SK-BR3, read-out: SK-BR3 GI50) was 0.0405 µM, the CC50 (SK-BR-3; Homo sapiens, SK-BR-3, 48 h, read-out: SK-BR3 LC50, SK-BR3) was 1.72 µM and the “SK-BR3 TGI” value (SK-BR-3; SK-BR3) was 9.87E-08. The GI50 (IGROV-1; Homo sapiens, IGROV-1, 48 h, IGROV, read-out: IGROV GI50) was 0.0351 µM, the CC50 (IGROV-1; Homo sapiens, IGROV-1, 48 h, read-out: IGROV LC50, IGROV) was 0.915 µM and the “IGROV TGI” value (IGROV-1; IGROV) was 6.54E-08. For the same molecule, the GI50 (IGROV-ET; Homo sapiens, 48 h, IGROV-ET, read-out: IGROV-ET GI50) was 0.0632 µM, the CC50 (IGROV-ET; Homo sapiens, 48 h, read-out: IGROV-ET LC50, IGROV-ET) was 11.1 µM and the “IGROV-ET TGI” value (IGROV-ET; IGROV-ET) was 7.41E-07. The GI50 (SK-OV-3; Homo sapiens, SK-OV-3, 48 h, SK-OV3, read-out: SK-OV3 GI50) was 0.0282 µM, the LC50 (SK-OV-3; Homo sapiens, SK-OV-3, 48 h, read-out: SK-OV3 LC50, SK-OV3) was 0.111 µM and the “SK-OV3 TGI” value (SK-OV-3; SK-OV3) was 5.74E-08. For the same molecule, the GI50 (PANC-1; Homo sapiens, PANC-1, 48 h, PANC-1, read-out: PANC-1 GI50) was 0.0414 µM, the LC50 (concentration for 50% net cell kill) (PANC-1; Homo sapiens, PANC-1, 48 h, read-out: PANC-1 LC50, PANC-1) was 8.32 µM and the “PANC-1 TGI” value (PANC-1; PANC-1) was 1.14E-08. For the same molecule, the “HMEC-1 TGI” value (HMEC1; HMEC-1) was 5.14E-08, the GI50 (HMEC1; Homo sapiens, HMEC-1, 48 h, HMEC-1, read-out: HMEC-1 GI50) was 0.0275 µM and the LC50 (HMEC1; Homo sapiens, HMEC-1, 48 h, read-out: HMEC-1 LC50, HMEC-1) was 0.0961 µM.
`COc1cc2c(cc1O)CCN(C)[C@]21CS[C@@H]2c3c(OC(C)=O)c(C)c4c(c3[C@H](COC1=O)N1C2[C@@H]2N[C@@H](Cc3cc(C)c(OC)c(O)c32)[C@@H]1O)OCO4` (stereo partly shown) [Compound 217] was tested, and the GI50 (A-549; SRB assay, 48 hours exposure) was 0.0021 µM, the LC50 (concentration for 50% cell killing) (A-549; read-out: A-549 LC50, SRB assay, 48 hours exposure) was 0.0457 µM and the “A-549 TGI” value (A-549; SRB assay, 48 hours exposure) was 6.16E-09. The GI50 (SK-MEL-28; Homo sapiens, SK-MEL-28, 48 h, SRB assay) was 0.000537 µM, the GI50 (HT-29; SRB assay, 48 hours exposure) was 0.0131 µM and the LC50 (concentration for 50% cell killing) (HT-29; read-out: HT-29 LC50, SRB assay, 48 hours exposure) was 13.1 µM. The “HT-29 TGI” value (HT-29; SRB assay, 48 hours exposure) was 1.31E-05, the “Toxicity Data Liver” value (Liver) was 1.07E-09 and the “Toxicity Data Skeletal” value (Skeletal) was 3.37E-12. The “Toxicity Data Kidney” value (Kidney) was 2.66E-13.
